Earlier results as cited in patent US20150017236A1, “PHARMACEUTICAL COMPOSITIONS OF THYROID HORMONE” (priority 2013, published 2015).

Details: tablet formulation of levothyroxine sodium; storage

## N[C@@H](Cc1cc(I)c(Oc2cc(I)c(O)c(I)c2)c(I)c1)C(=O)O [levothyroxine sodium, sodium (S)-2-amino-3-[4-(4-hydroxy-3,5-diiodphenoxy)-3,5-diiodophenyl]propionate]
  decomposition of levothyroxine: approximately 1 percent per month
